Data reported in patent publication US8497367B2, “Sucralose purification process” (Tate & Lyle Technology Limited, priority 2008, dated 2013).

Assay: Distribution coefficient K of sucralose between ethyl acetate (light phase) and aqueous DMAHCl/NaCl solution (heavy phase)
Type: physicochemical
Conditions: about 37 g ethyl acetate
Description: The solutions were all clear and colorless at room temperature.
Each sample was shaken with about 37 g of ethyl acetate (EA). The mixture was allowed to settle, resulting in the formation of a heavy phase (aqueous) and a light phase (EA based). The weights of these respective phases were recorded and each phase was analysed for its sucralose content. The dry solids content of each phase was also measured by evaporation to dryness (moisture balance).
From the data presented, it is possible to calculate the distribution coefficient K for each experiment, where K is defined as: K=(Wt % Sucralose in light phase)/(Wt % sucralose in heavy phase)

Calculated K / Actual K = (Wt % Sucralose in light phase)/(Wt % sucralose in heavy phase) (Exp #3, feed wt % on water: DMAHCL 0.36%, NaCl 9.87%, sucralose 27.58%): 1.38 | Calculated K / Actual K = (Wt % Sucralose in light phase)/(Wt % sucralose in heavy phase) (Exp #4, feed wt % on water: DMAHCL 0.41%, NaCl 2.10%, sucralose 27.06%): 0.93 | Calculated K / Actual K = (Wt % Sucralose in light phase)/(Wt % sucralose in heavy phase) (Exp #5, feed wt % on water: DMAHCL 5.07%, NaCl 9.75%, sucralose 27.31%): 1.09 | Calculated K / Actual K = (Wt % Sucralose in light phase)/(Wt % sucralose in heavy phase) (Exp #8, feed wt % on water: DMAHCL 4.99%, NaCl 2.04%, sucralose 27.01%): 0.83 | Calculated K / Actual K = (Wt % Sucralose in light phase)/(Wt % sucralose in heavy phase) (Exp #9, feed wt % on water: DMAHCL 2.55%, NaCl 5.15%, sucralose 13.98%): 0.76
Structure (SMILES): OC[C@H]1O[C@H](O[C@]2(CCl)O[C@H](CCl)[C@@H](O)[C@@H]2O)[C@H](O)[C@@H](O)[C@H]1Cl [Sucralose, 4,1′,6′-trichloro-4,1′,6′-trideoxygalactosucrose]
